# Test results published in publication PMC4295349, “Synthetic Antimicrobial Peptides Exhibit Two Different Binding Mechanisms to the Lipopolysaccharides Isolated from Pseudomonas aeruginosa and Klebsiella pneumoniae” (International Journal of Medicinal Chemistry, 2014).
# Like-named read-outs stand apart in the source and are kept apart here. Where a SMILES comes first, the peptide text is derived from it. [ ]: non-standard residue; d: D form. Oic = O=C(O)[C@@H]1C[C@@H]2CCCC[C@@H]2N1; Tic = O=C(O)[C@@H]1Cc2ccccc2CN1; Dab = NCC[C@H](N)C(=O)O
# How the values were obtained:
# [1] = test system: K. pneumoniae BAMC 07-18
# [2] = test system: P. aeruginosa PAO1
# [3] = test system: K. pneumoniae BAMC 07-18; format: cell-based, Klebsiella pneumoniae
# Source text: Table 3 In vitro minimum inhibitory concentration (MIC) and minimum bactericide concentration (MBC) activity against K. pneumonia and P. aeruginosa. | column: K. pneumoniae BAMC 07-18 / MBC (μg/mL)/(μM)
# [4] = test system: LPS isolated from P. aeruginosa or K. pneumoniae; experiment: Precipitation of AMP-LPS mixtures prepared for CD; format: physicochemical; conditions: 350 μL stock LPS + 50 μL stock peptide, phosphate buffer; CD spectra could not be obtained
# Experimental: Peptide solutions were prepared by dissolving approximately 2 mg of AMPs 70, 74, 75, 79, or 80 in 1.0 mL of phosphate buffer. […] For the LPS liposome studies 350 μL of stock LPS solution was mixed with 50 μL of stock peptide solution. CD spectroscopy is a sensitive technique, so it is commonly used to monitor conformational changes in peptides and proteins. […] All CD spectra were obtained by acquiring 8 scans using a 0.1 mm cylindrical quartz cell with a spectral range of 260 to 195 nm (at wavelengths below 195 nm the HTV exceeded 400, and therefore data collection was terminated at 195 nm) and a scanning rate of 20 nm/min. Acquisition parameters were bandwidth 1 nm, data pitch 0.2 nm, response time 2.0 s, and 5 mdeg sensitivity. Spectra were collected at room temperature (298 K). Contributions from LPS were eliminated by subtracting from the corresponding AMP-LPS solutions. All analyses of CD spectra were conducted after smoothing with a means-movement function.
# [5] = test system: P. aeruginosa PAO1; format: cell-based, Pseudomonas aeruginosa
# Source text: Table 3 In vitro minimum inhibitory concentration (MIC) and minimum bactericide concentration (MBC) activity against K. pneumonia and P. aeruginosa. | column: P. aeruginosa PAO1 / MBC (µg/mL)/(μM)
# [6] = K. pneumoniae BAMC 07-18, light face value
# [7] = P. aeruginosa PAO1, light face value
smiles,measurement,setting,value
CC(C)C[C@H](NC(=O)[C@@H](N)CCN)C(=O)N1Cc2ccccc2C[C@H]1C(=O)N1[C@H](C(=O)N[C@@H](CCN)C(=O)N2Cc3ccccc3C[C@H]2C(=O)N2[C@H](C(=O)N[C@@H](Cc3ccccc3)C(=O)N3Cc4ccccc4C[C@H]3C(=O)N3[C@H](C(=O)N[C@@H](CCN)C(=O)N4Cc5ccccc5C[C@H]4C(=O)N4[C@H](C(=O)N[C@@H](Cc5ccccc5)C(=O)N5Cc6ccccc6C[C@H]5C(=O)N5[C@H](C(=O)N[C@@H](CCN)C(=O)N6Cc7ccccc7C[C@H]6C(=O)N6[C@H](C(=O)N[C@@H](CCN)C(=O)N[C@@H](CCN)C(=O)N[C@@H](CCN)C(=O)N[C@@H](CCN)C(N)=O)C[C@@H]7CCCC[C@@H]76)C[C@@H]6CCCC[C@@H]65)C[C@@H]5CCCC[C@@H]54)C[C@@H]4CCCC[C@@H]43)C[C@@H]3CCCC[C@@H]32)C[C@@H]2CCCC[C@@H]21 [AMP 73] (H-[Dab]L[Tic][Oic][Dab][Tic][Oic]F[Tic][Oic][Dab][Tic][Oic]F[Tic][Oic][Dab][Tic][Oic][Dab][Dab][Dab][Dab]-NH2),MIC,[1]; BAMC 07-18,16.2 µM
same,MIC,[1]; [6],50 µg/mL
same,MIC,[2]; [7],50 µg/mL
same,MIC,[2]; PAO1,16.2 µM
same,MBC,[3]; BAMC 07-18,32.4 µM
same,MBC,[3]; [6],100 µg/mL
same,precipitation in the presence of either LPS,[4],precipitation of uncharacterized AMP-LPS complexes
same,MBC,[5]; [7],100 µg/mL
same,MBC,[5]; PAO1,32.4 µM
